Patent US9586962B2, “Disubstituted octahydropyrrolo [3,4-C] pyrroles as orexin receptor modulators” (Janssen Pharmaceutica NV, priority 2011, dated 2017)

Biological target: human orexin 2 receptor (Homo sapiens (Human), UniProt O43614)
Assay: Human orexin 2 receptor Ca2+ mobilization assay (FLIPR, PFSK cells, orexin B 100 nM)
Type: cell-based
Conditions: modified Cheng-Prusoff correction, read-out: OR 2 Kb
Method: Human Orexin 2 Receptor Ca^2+ Mobilization Assay
Cells were seeded on to 96-well Packard viewplates at a density of 50,000 cells/well and incubated overnight at 37° C., 5% CO2. The cells were dye-loaded with 4 μM Ca^2+ dye Fluo-3AM in serum-free DMEM/F-12 with 2.5 mM probenecid and incubated at 37° C., 5% CO2 for one hour. Cells were pre-incubated with compounds (diluted in DMEM/F-12) for 30 minutes before agonist (orexin B, 100 nM) stimulation. Ligand-induced Ca^2+ release was measured using a Fluorometric Imaging Plate Reader (FLIPR, Molecular Devices, Sunnyvale, Calif.). Functional responses were measured as peak fluorescence intensity minus basal. The concentration of agonist that produced a half-maximal response is represented by the EC50 value. Antagonistic potency values were converted to apparent pKB values using a modified Cheng-Prusoff correction. Apparent pKB=−log IC50/1+[conc agonist/EC50]. Data are expressed as mean±S.E.M, the designation of NT means not tested.

human orexin 2 receptor, sequence (O43614 whole entry): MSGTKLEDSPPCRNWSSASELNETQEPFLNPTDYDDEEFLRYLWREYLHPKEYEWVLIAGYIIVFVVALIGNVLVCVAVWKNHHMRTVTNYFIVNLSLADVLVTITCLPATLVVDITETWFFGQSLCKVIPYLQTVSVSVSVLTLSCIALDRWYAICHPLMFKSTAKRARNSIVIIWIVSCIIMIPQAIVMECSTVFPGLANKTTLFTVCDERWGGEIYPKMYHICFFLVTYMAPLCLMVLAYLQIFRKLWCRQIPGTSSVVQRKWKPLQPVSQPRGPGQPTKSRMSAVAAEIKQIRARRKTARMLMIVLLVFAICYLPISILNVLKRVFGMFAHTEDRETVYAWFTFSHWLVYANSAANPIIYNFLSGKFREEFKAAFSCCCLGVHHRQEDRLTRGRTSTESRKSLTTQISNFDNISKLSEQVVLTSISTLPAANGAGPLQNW

| SMILES | Kb |
| --- | --- |
| CCOc1ccccc1C(=O)N1CC2CN(c3nc(C)cc(C)n3)CC2C1 (centres unmarked) [Example 88, 2-(4,6-Dimethylpyrimidin-2-yl)-5-[(2-ethoxyphenyl)carbonyl]octahydropyrrolo[3,4-c]pyrrole] | 25 nM |
| Cc1cc(C)nc(N2CC3CN(C(=O)c4ccc(F)c5ccccc45)CC3C2)n1 (centres unmarked) [Example 90, 2-(4,6-Dimethylpyrimidin-2-yl)-5-[(4-fluoronaphthalen-1-yl)carbonyl]octahydro-pyrrolo[3,4-c]pyrrole] | 25 nM |
| Cc1cc(C)nc(N2CC3CN(C(=O)c4cccc5ccccc45)CC3C2)n1 (centres unmarked) [Example 93, 2-(4,6-Dimethylpyrimidin-2-yl)-5-(naphthalen-1-ylcarbonyl)octahydropyrrolo[3,4-c]pyrrole] | 40 nM |
| Cc1cc(N2CC3CN(C(=O)c4ccccc4-c4nnc[nH]4)CC3C2)nc(C(F)(F)F)n1 (centres unmarked) [Example 96, 2-[6-Methyl-2-(trifluoromethyl)pyrimidin-4-yl]-5-{[2-(4H-1,2,4-triazol-3-yl)phenyl]carbonyl}octahydropyrrolo[3,4-c]pyrrole] | 50 nM |
| Cc1cc(N2CC3CN(C(=O)c4ccc(F)cc4-n4nccn4)CC3C2)nc(C(F)(F)F)n1 (centres unmarked) [Example 99, 2-{[4-Fluoro-2-(2H-1,2,3-triazol-2-yl)phenyl]carbonyl}-5-[6-methyl-2-(trifluoromethyl)pyrimidin-4-yl]octahydropyrrolo[3,4-c]pyrrole] | 16 nM |
| Cc1ccc(-c2ncccn2)c(C(=O)N2CC3CN(c4nc(C)cc(C)n4)CC3C2)c1 (centres unmarked) [Example 102, 2-(4,6-Dimethylpyrimidin-2-yl)-5-[(5-methyl-2-pyrimidin-2-ylphenyl)carbonyl]octahydropyrrolo[3,4-c]pyrrole] | 6 nM |
| Cc1ccc(-c2ncccn2)c(C(=O)N2CC3CN(c4nc(C)cnc4C)CC3C2)c1 (centres unmarked) [Example 103, 2-(3,6-Dimethylpyrazin-2-yl)-5-[(5-methyl-2-pyrimidin-2-ylphenyl)carbonyl]octahydropyrrolo[3,4-c]pyrrole] | 32 nM |
| Cc1cnc(C)c(N2CC3CN(C(=O)c4ccc(F)cc4-n4nccn4)CC3C2)n1 (centres unmarked) [Example 104, 2-(3,6-Dimethylpyrazin-2-yl)-5-{[4-fluoro-2-(2H-1,2,3-triazol-2-yl)phenyl]carbonyl}octahydropyrrolo[3,4-c]pyrrole] | 25 nM |
| Cc1ccc(-c2ncccn2)c(C(=O)N2CC3CN(c4cc(C(F)(F)F)nc(N(C)C)n4)CC3C2)c1 (centres unmarked) [Example 108, N,N-Dimethyl-4-{5-[(5-methyl-2-pyrimidin-2-ylphenyl)carbonyl]hexahydropyrrolo[3,4-c]pyrrol-2(1H)-yl}-6-(trifluoromethyl)pyrimidin-2-amine] | 25 nM |
| Cc1ccc(-c2ncccn2)c(C(=O)N2CC3CN(c4cc(C)nc(C(F)(F)F)n4)CC3C2)c1 (centres unmarked) [Example 112, 2-[(5-Methyl-2-pyrimidin-2-ylphenyl)carbonyl]-5-[6-methyl-2-(trifluoromethyl)pyrimidin-4-yl]octahydropyrrolo[3,4-c]pyrrole] | 20 nM |
| O=C(c1cc(F)ccc1-c1ncccn1)N1CC2CN(c3nccc(-c4ccccc4)n3)CC2C1 (centres unmarked) [Example 113, 2-[(5-Fluoro-2-pyrimidin-2-ylphenyl)carbonyl]-5-(4-phenylpyrimidin-2-yl)octahydropyrrolo[3,4-c]pyrrole] | 63 nM |
| Cc1cc(N2CC3CN(C(=O)c4c(F)cccc4-c4ncccn4)CC3C2)nc(C(F)(F)F)n1 (centres unmarked) [Example 117, 2-[(2-Fluoro-6-pyrimidin-2-ylphenyl)carbonyl]-5-[6-methyl-2-(trifluoromethyl)pyrimidin-4-yl]octahydropyrrolo[3,4-c]pyrrole] | 8 nM |
| Cc1cc(N(C)C)nc(N2CC3CN(C(=O)c4ccccc4-n4nccn4)CC3C2)n1 (centres unmarked) [Example 119, N,N,6-Trimethyl-2-[5-{[2-(2H-1,2,3-triazol-2-yl)phenyl]carbonyl}hexahydropyrrolo[3,4-c]pyrrol-2(1H)-yl]pyrimidin-4-amine] | 13 nM |

Other lines, results leading:

| Kb | SMILES |
| --- | --- |
| 16 nM | Cc1cc(N2CC3CN(C(=O)c4ccccc4-n4nccn4)CC3C2)nc(C(F)(F)F)n1 (centres unmarked) [Example 97, 2-[6-Methyl-2-(trifluoromethyl)pyrimidin-4-yl]-5-{[2-(2H-1,2,3-triazol-2-yl)phenyl]carbonyl}octahydropyrrolo[3,4-c]pyrrole] |
| 10 nM | Cc1cc(N2CC3CN(C(=O)c4c(F)cccc4-n4nccn4)CC3C2)nc(C(F)(F)F)n1 (centres unmarked) [Example 98, 2-{[2-Fluoro-6-(2H-1,2,3-triazol-2-yl)phenyl]carbonyl}-5-[6-methyl-2-(trifluoromethyl)pyrimidin-4-yl]octahydropyrrolo[3,4-c]pyrrole] |
| 25 nM | Cc1cnc(C)c(N2CC3CN(C(=O)c4c(F)cccc4-n4nccn4)CC3C2)n1 (centres unmarked) [Example 101, 2-(3,6-Dimethylpyrazin-2-yl)-5-{[2-fluoro-6-(2H-1,2,3-triazol-2-yl)phenyl]carbonyl}octahydropyrrolo[3,4-c]pyrrole] |
| 20 nM | CN(C)c1nc(N2CC3CN(C(=O)c4c(F)cccc4-n4nccn4)CC3C2)cc(C(F)(F)F)n1 (centres unmarked) [Example 106, 4-[5-{[2-Fluoro-6-(2H-1,2,3-triazol-2-yl)phenyl]carbonyl}hexahydropyrrolo[3,4-c]pyrrol-2(1H)-yl]-N,N-dimethyl-6-(trifluoromethyl)pyrimidin-2-amine] |
| 25 nM | CN(C)c1nc(N2CC3CN(C(=O)c4cc(F)ccc4-c4ncccn4)CC3C2)cc(C(F)(F)F)n1 (centres unmarked) [Example 109, 4-{5-[(5-Fluoro-2-pyrimidin-2-ylphenyl)carbonyl]hexahydropyrrolo[3,4-c]pyrrol-2(1H)-yl}-N,N-dimethyl-6-(trifluoromethyl)pyrimidin-2-amine] |
| 32 nM | CN(C)c1nc(N2CC3CN(C(=O)c4cc(F)ccc4-n4nccn4)CC3C2)cc(C(F)(F)F)n1 (centres unmarked) [Example 110, 4-[5-{[5-Fluoro-2-(2H-1,2,3-triazol-2-yl)phenyl]carbonyl}hexahydropyrrolo[3,4-c]pyrrol-2(1H)-yl]-N, N-dimethyl-6-(trifluoromethyl)pyrimidin-2-amine] |
| 16 nM | CN(C)c1nc(N2CC3CN(C(=O)c4ccc(F)cc4-n4nccn4)CC3C2)cc(C(F)(F)F)n1 (centres unmarked) [Example 111, [5-(2-Dimethylamino-6-trifluoromethyl-pyrimidin-4-yl)-hexahydro-pyrrolo[3,4-c]pyrrol-2-yl]-(4-fluoro-2-[1,2,3]triazol-2-yl-phenyl)-methanone] |
| 13 nM | CN(C)c1nc(N2CC3CN(C(=O)c4c(F)cccc4-c4ncccn4)CC3C2)cc(C(F)(F)F)n1 (centres unmarked) [Example 116, 4-{5-[(2-Fluoro-6-pyrimidin-2-ylphenyl)carbonyl]hexahydropyrrolo[3,4-c]pyrrol-2(1H)-yl}-N,N-dimethyl-6-(trifluoromethyl)pyrimidin-2-amine] |
| 13 nM | Cc1cc(N2CC3CN(C(=O)c4ccccc4-n4nccn4)CC3C2)nc(N(C)C)n1 (centres unmarked) [Example 120, N,N,4-Trimethyl-6-[5-{[2-(2H-1,2,3-triazol-2-yl)phenyl]carbonyl}hexahydropyrrolo[3,4-c]pyrrol-2(1H)-yl]pyrimidin-2-amine] |
| 13 nM | CN(C)c1nc(N2CC3CN(C(=O)c4ccccc4-n4nccn4)CC3C2)cc(C(F)(F)F)n1 (centres unmarked) [Example 121, N,N-Dimethyl-4-[5-{[2-(2H-1,2,3-triazol-2-yl)phenyl]carbonyl}hexahydropyrrolo[3,4-c]pyrrol-2(1H)-yl]-6-(trifluoromethyl)pyrimidin-2-amine] |
